Measured values: patent US12516058B2, “Small-molecule compounds for controlling endosomal toll-like receptors and therapeutic agent for autoimmune diseases using same” (priority 2020, dated 2026)

Biological target: T1, TLR8 (Homo sapiens, UniProt Q9NR97)
T1 construct: endogenous in cells; host or cells: THP-1 (PMA-differentiated)
T1 sequence (Q9NR97 27-1041): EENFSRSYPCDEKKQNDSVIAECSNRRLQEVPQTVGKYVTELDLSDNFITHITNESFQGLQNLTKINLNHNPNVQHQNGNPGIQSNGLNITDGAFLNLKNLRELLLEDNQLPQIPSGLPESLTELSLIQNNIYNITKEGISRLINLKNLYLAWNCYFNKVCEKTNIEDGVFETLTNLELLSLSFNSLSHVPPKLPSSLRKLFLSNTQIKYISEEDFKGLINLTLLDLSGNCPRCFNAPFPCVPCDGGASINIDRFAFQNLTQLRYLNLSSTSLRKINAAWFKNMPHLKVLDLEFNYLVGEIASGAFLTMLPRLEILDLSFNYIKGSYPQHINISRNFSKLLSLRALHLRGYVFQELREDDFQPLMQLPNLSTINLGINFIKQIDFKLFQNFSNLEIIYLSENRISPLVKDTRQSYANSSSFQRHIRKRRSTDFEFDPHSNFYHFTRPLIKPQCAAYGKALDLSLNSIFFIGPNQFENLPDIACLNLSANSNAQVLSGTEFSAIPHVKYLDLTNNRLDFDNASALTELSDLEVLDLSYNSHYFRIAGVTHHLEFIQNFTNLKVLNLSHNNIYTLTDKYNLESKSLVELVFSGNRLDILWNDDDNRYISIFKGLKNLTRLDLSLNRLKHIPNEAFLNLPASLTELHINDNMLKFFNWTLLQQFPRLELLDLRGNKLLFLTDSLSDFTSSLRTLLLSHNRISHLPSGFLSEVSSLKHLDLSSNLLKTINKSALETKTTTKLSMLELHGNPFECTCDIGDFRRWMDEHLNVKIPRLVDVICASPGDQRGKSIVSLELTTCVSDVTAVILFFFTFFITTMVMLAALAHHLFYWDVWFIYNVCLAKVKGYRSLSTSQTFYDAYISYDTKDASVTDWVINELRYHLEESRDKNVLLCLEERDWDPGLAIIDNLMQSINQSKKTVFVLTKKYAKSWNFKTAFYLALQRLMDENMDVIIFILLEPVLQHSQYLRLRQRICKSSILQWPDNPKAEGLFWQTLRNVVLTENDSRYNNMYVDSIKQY
Experiment: TNF-α secretion ELISA after TLR8 agonist TL8-506 in PMA-differentiated THP-1 cells
Type: cell-based
Details: SK01, TL8-506 4 h
Procedure: FIGS. 5A to 5C show the inhibitory activities of SK01 on TLRs (TLR1/2, TLR2/6 and TLR4) exposed to the cell surface, and FIGS. 5D to 5G show the inhibitory activities of SK01 against endosome TLRs (TLR3, TLR7, TLR8 and TLR9), wherein RAW 264.7 cells were treated at predetermined concentrations with a negative control, a positive control (only ligand), additional positive control (ligand and 0.25% DMSO), or SK01 for 1 hour, and then stimulated with TLR-specific agonists for 4 or 24 hours (TLR3 only), a human monocytic cell line (THP-1) was used for TLR8 and THP-1 cells were treated with phorbol 12-myristate 13-acetate for 48 hours to induce cell differentiation, then treated with SK01 for 1 hour, and was treated with the TLR8 agonist TL8-506 for 4 hours, and the level of TNF-α secretion was measured by ELISA.

## Cc1c(C)n(CCN(C)C)c2nc3c(c(N)c12)CCCCC3 [SK01, 1-(2-(dimethylamino)ethyl)-2,3-dimethyl-1,5,6,7,8,9-hexahydrocyclohepta[b]pyrrolo[3,2-e]pyridin-4-amine]
  activity against TLR8: no activity
